In patent US10487045B2, “Adamantane derivative and use thereof” (TOHOKU UNIVERSITY, priority 2016, dated 2019):

Assays:
Kir6.2 channel = target: T1, Kir6.2 channel (Mus musculus, UniProt Q61743); assay: CaMKII activation in N2A cells overexpressing Kir6.2 channel (immunoblotting, anti-phosphorylated CaMKII antibody); assay type: cell-based; conditions: 10 nM, one hour, Kir6.2 channel overexpressing N2A cells; control without compound = 100%
T1 construct: expressed in transfected cells; host or cells: Neuro2A (N2A) cells, transient transfection with pcDNA3.1-Kir6.2 (gift of Dr. Toru Ishizuka, Tohoku University)
T1 sequence (Q61743 1-390): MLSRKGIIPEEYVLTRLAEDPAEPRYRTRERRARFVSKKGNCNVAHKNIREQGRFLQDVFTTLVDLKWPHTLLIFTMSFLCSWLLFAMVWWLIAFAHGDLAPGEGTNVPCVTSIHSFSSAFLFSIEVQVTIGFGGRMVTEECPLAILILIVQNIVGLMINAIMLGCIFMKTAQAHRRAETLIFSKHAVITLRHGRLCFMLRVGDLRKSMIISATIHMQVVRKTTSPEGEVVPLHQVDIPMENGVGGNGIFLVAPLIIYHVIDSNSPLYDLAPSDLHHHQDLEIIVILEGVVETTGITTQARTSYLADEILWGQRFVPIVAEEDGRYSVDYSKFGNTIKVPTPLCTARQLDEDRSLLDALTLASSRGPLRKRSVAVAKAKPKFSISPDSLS
Method: A plasmid vector having cDNA of Kir6.2 channel inserted therein: pcDNA3.1-Kir6.2, was obtained from Dr. Toru Ishizuka (Graduate School of Life Sciences, Tohoku University). The plasmid vector, pcDNA3.1-Kir6.2, was conditioned in accordance with the manual attached to GenElute HP Plasmid Maxiprep Kit (manufactured by Sigma-Aldrich). A culture solution (composition: DMEM culture solution 450 mL containing 50 ml of bovine serum and 100 units of penicillin/streptomycin) of Neuro2A cells (N2A cells, the National Instituted of Biomedical Innovation) cultured in DMEM culture solution (Gibco) was exchanged with Opti-Mem (Gibco)(containing Lipofectamine R2000 (1 μg/1 ml)) containing pcDNA3.1-Kir6.2 (1 μg/μl) conditioned above, and cultured for 5 hours to obtain N2A cells overexpressing Kir6.2 channel. Exchange with the DMEM culture solution was again performed and culture was carried out for two days. Thereafter, memantine (manufactured by Sigma-Aldrich) and the compound of the present invention (n=4 per group) were added in the culture solutions (DMEM, Gibco) so as to obtain a concentration of 10 nM based on the culture solution, and the culture solutions were allowed to stand still for one hour. Thereafter, Kir6.2 channel overexpressing N2A cells were collected and an SDS sample buffer was added to the N2A cells to prepare a suspension. The suspension was subjected to immunoblotting by use of an anti-phosphorylated CaMKII antibody (Fukunaga K et al., J. Biol. Chem. 1992, 267, 22527-22533) as a primary antibody and an anti-rabbit IgG antibody (manufactured by SouthernBiotech) as a secondary antibody (other conditions except the aforementioned antibodies were the same as those employed in ordinary immunoblotting), to investigate activation of CaMKII. As a result, in TP-009, TP-010, TP-011, TP-012, TP-014, TP-015, TP-048, TP-049, TP-050, TP-051, TP-052, TP-053, bands showing a reaction with the antibody against phosphorylated CaMKII were obtained. It was confirmed that activation of CaMKII is enhanced. In FIG. 1, the result of the case (control: c) where a test compound was not added is regarded as 100%. CaMKII activation of the cases containing memantine, TP-009, TP-010, TP-011, TP-012, TP-014, TP-015, TP-048, TP-049, TP-050, TP-051, TP-052, TP-053 (corresponding to M, 9, 10, 11, […], 15, 48, 49, 50, 51, 52 and 53, respectively) were shown in FIG. 1.

APP23 mice = assay: New object recognition test in Alzheimer's disease model mice; assay type: in vivo; conditions: APP23 mice 12 month-old, administered for two months
Method: The new object recognition test method is carried out as follows. Two identical shape building blocks are placed in a mouse cage and mice are allowed to play for 10 minutes (this is referred to as a training trial). One hour later, one of the building blocks was replaced with a different-shaped building block. Since normal mice show interest on a new object, they play a longer time with the different-shaped building block. The Alzheimer's disease (model) mice, since the mice fail to recognize the new object (building block), are seemed to have memory disturbance. Mice are allowed to freely play for further 5 minutes with two building blocks different in shape (this is referred to as retention trial). In the training trial and retention trial, the number of times a mouse is in contact with each of the two objects was counted. The ratio (%) of the number of contact times to the different-shaped building block to the total number of contact times in the retention trial was calculated and used as a discrimination index.

Kir6.2 defective mice = assay: Immunoblotting of hippocampus for CaMKII activation in Kir6.2 defective mice; assay type: in vivo; conditions: chronic treatment
Method: Activation of CaMKII was investigated in the same manner as in FIGS. 4 to 7. In addition, GluA1 (Ser-831), which is known as a molecule activated by activation of CaMKII, was investigated. Hippocampal slices were suspended in an SDS sample buffer to prepare a suspension, which was subjected to immunoblotting. In this way, the intracellular mechanism of cognitive dysfunction in Kir6.2 defective mice was analyzed. The results are shown in FIG. 9 (FIG. 9a: band images by immunoblotting, FIG. 9b: quantification results of signal intensities of bands). In the hippocampus of Kir6.2 defective mice, activation of CaMKII was accelerated. Even in the case of chronic treatment with TP-014, no influence was observed.

Kir6.1 defective mice = assay: Tail-suspension and forced swim methods in Kir6.1 defective mice (hetero-type); assay type: in vivo; conditions: chronic treatment
Method: OBX mice were originally established as depression model mice although a deterioration of cognitive function was observed. Depression was analyzed by a tail-suspension method (a) and a forced swim method (b). The tail-suspension method is a method of pinching the tail of a mouse and hanging the mouse upside down. If the mouse hung has depression, immobility time is long. Since a normal mouse moves even if it is hung, the immobility time is short. In the forced swim method, a mouse is forced to swim in water in a beaker. A mouse having depression neither swims nor moves (just floating). Thus the immobility time is measured. Immobility time was long in OBX mice both in the tail-suspension method (a) and the forced swim method (b). The immobility time of a TP-014 chronic administration group (2 weeks, in the same administration method as that previously mentioned) was improved.
Immobility time of Kir6.1 defective mice (hetero-type, n=5 per group) was measured by the tail-suspension method (a) and the forced swim method (b) in the same manner as in FIGS. 11a and 11b. The hetero-type mice are the mice in which the expression level of Kir6.1 channel is half (the homo type mice develops arrhythmia after birth and dies) in contrast to the homo type mice (complete defective mice). […] The chronic treatment with TP-014 was not effective. […]

O=C(N[C@@H](c1ccccc1)[C@H]1[C@H]2C[C@@H]3C[C@](Cl)(C2)C[C@@]1(OC(=O)C(F)(F)F)C3)C(F)(F)F [TP-014, (1S,2R,3S,5S,7S)-5-chloro-2-((R)-phenyl(2,2,2-trifluoroacetamido)methyl)adamantan-1-yl 2,2,2-trifluoroacetate]
activation of CaMKII (phosphorylated CaMKII bands) (Kir6.2 channel): enhanced
cognitive function, new object recognition test (discrimination index) (APP23 mice): effectively improved
activation of CaMKII in hippocampus of Kir6.2 defective mice (Kir6.2 defective mice): no influence
depression-like symptom, immobility time in Kir6.1 defective mice (Kir6.1 defective mice): not effective
